This note sets out measurements from US12605407B2, “Methods to induce terminal differentiation in stem cells by interfering with DNA replication, methods of inducing pancreatic differentiation, and differentiated cells obtained thereof” (priority 2018, dated 2026).

Data set [1] concerns pancreatic progenitor cells. Put plainly: TUNEL staining for apoptosis and absolute cell numbers. The data set is classed as cell-based. An excerpt:
To determine whether the increased percentage of beta cells was due to cell death of proliferating progenitors or due to increased differentiation from pancreatic progenitor cells, absolute cell numbers and cell death were quantified. Cells at day 17 and day 27 with and without APH treatment were stained for TUNEL. […] Therefore, the increased percentage of C-peptide positive cells was due to the increased differentiation, not the elimination of non-C-peptide positive cells from day 15 to day 20. After day 20, APH maintained the purity of beta cell clusters by preventing the growth of non-beta cells.

The test system of data set [2] is stem cell derived beta cells. As to the kind of experiment: Gene expression by quantitative realtime PCR in sorted insulin-GFP positive cells. The data set is classed as cell-based, human. An excerpt:
Total RNA was extracted from the cells at beta cell stage (d27) from different conditions using a RNeasy Mini Kit (Cat. No. 74106, QIAGEN). The total RNA was reverse transcripted into cDNA using iScript™ Reverse Transcription Supermix (Cat. No. 170-8841, Bio-Rad), and the cDNA were sequentially used as template with SsoFast™ EvaGreen® Supermix (Cat. No. 172-5202, Bio-Rad) for quantitative realtime PCR.
By the end of day 27, 30% of control cells were in cell cycle through G1 to M phase indicated by the expression of KI67 (a proliferation marker expressed in the cells within cell cycle) and amount of DNA content (FIG. 3A). […] The cell cycle gene expression in insulin expressing cells was also examined.
(§1) Insulin positive cells were isolated based on GFP expression and the expressions of genes related to the maturation of beta cells including PDX1, NKX6.1, MAFA and insulin were evaluated (FIG. 6A). […] In addition, the C-peptide secretion was increased 2-6-fold, with an average of 3-fold, in response to high levels of glucose (FIG. 6D).

Data set [3] deals with stem cell derived beta cells. As to the kind of experiment: Western blotting of sorted GFP positive cells. The data set is classed as cell-based, human. The settings on record: Western Blot. The method, then:
The sorted GFP positive and negative cells with and without cell cycle inhibitor (e.g., APH) treatment were lysed with RIPA buffer. Protein was quantified with Pierce BCA protein assay kit. 20 ug of protein was loaded on 4-20% Mini-PROTEAN TGS Precast Protein Gels (Cat. No. 4561094, Bio-Rad) from each condition and ran at 100 V for 1 hour followed by transferring protein on PVDF membrane. The membrane was blocked with 3% BSA in TBST for 1 hour at RT, incubate with primary antibodies diluted in TBST with 3% BSA overnight on a shaker. After washing with TBST, the membrane was incubated with secondary antibodies diluted in TBST with 3% non-fat dry milk powder for 1 hour at room temperature. The image was taken using ChemiDoc Imaging Systems (Bio-Rad).
as §1
(In general: Immunoblotting shows a protein as a band on a membrane.)

Data set [4] has as its system NSG mice. Put plainly: Graft growth by luciferase reporter in vivo imaging, cyst formation and graft sections. How it is done: 8-10 weeks old male immuno-compromised mice (NOD.Cg-Prkdcscid Il2rgtm1Wj1/SzJ (NSG) from Jackson laboratories, Cat. No. 005557) were used for transplantation. For intra leg muscle transplantation, 1-2 million cells were collected and settled in tube with 50 μl Matrigel. All animal protocols were approved by the Institutional Animal Care and Use Committee in Columbia University.
A major obstacle for the therapeutic translation of stem cell products is the formation of growths, in the form of a teratoma or of a cyst. To determine growth potential of the grafted cells, growth was evaluated by monitoring the graft with a luciferase reporter using in vivo imaging. Mice were transplanted with 1-2 million APH treated cells or untreated cells. After 2 weeks of transplantation, the graft size of APH mice was small, while controls were modestly larger (FIG. 8A). […] The different growth trend of grafted cells between control and APH treated cells was evident in the bioluminescence intensity (FIG. 8C). At 22 weeks of engraftment, the size of graft in APH group was an average of 2.6-fold larger than that of 2 weeks compare to the control group which had 53.1-fold increase (FIG. 8D). Graft growth occurred in controls even in cultures with very high differentiation efficiency (greater than 60%). The increase of graft size was slower in the 3 mice transplanted with control cells with high differentiation efficiency but cystic structure still formed in three out of the three (3/3) mice (FIG. 8C, FIG. 8E).
The grafts were isolated from mice and frozen sectioned for examination. […] In control mice, the graft developed several large cystic structures and contained fewer C-peptide positive cells (FIG. 8G).
In general terms: A reporter such as luciferase makes a cellular process visible.

Setting [5] is: GFP positive cells from APH treated clusters versus GFP positive cells in control clusters.
[6] abbreviates: isolated grafts, frozen sections.

As to `C[C@@]1(CO)[C@H](O)CC[C@@]2(C)[C@H]1CC[C@H]1C[C@@H]3C[C@@]12CC[C@]3(O)CO` [APH, Aphidicolin], the “cell apoptosis, percentage of TUNEL positive cells” value in data set [1] (day 17 and day 27, early and late stage of APH treatment) is given as “No significant increase”. In data set [1] (day 20), the “number of total cells compared to control group” value was “comparable” and the “percentage of C-peptide positive cells compared to control” value is on record as “significantly increased”. Besides, in data set [2] (setting [5]), the “expression of MAFA at transcription level” value is listed as “significantly upregulated”, the “expression of NKX6.1 at transcription level” value is recorded as “significantly upregulated”, the “expression of PDX1 at transcription level” value is on record as “significantly upregulated” and the “expression of insulin at transcription level” value is reported as “significantly upregulated”. In addition, in data set [2] (insulin positive cells), the “expression of CDK4” value is given as “downregulated”, the “expression of Cyclin D1” value is given as “downregulated” and the “expression of P21” value is on record as “upregulated”. For the same molecule, in data set [3], the “expression of MAFA at the translational level” value was “increased expression”, the “expression of NKX6.1 at the translational level” value is recorded as “increased expression”, the “expression of PDX1 at the translational level” value is “increased expression” and the “expression of insulin at the translational level” value is reported as “increased expression”. For the same molecule, the graft size entry in data set [4] (2 weeks of transplantation, 1-2 million APH treated cells) is listed as “small”. Also, the “size of graft relative to 2 weeks, average (bioluminescence)” value in data set [4] (22 weeks of engraftment) worked out at 2.6 fold. The “graft size relative to graft at 2 weeks” value in data set [4] (eleven weeks later (13 weeks post transplantation)) is given as “remained the similar size”. Besides, the “cysts in mice grafted with APH treated cells” value in data set [4] (four out of the four (4/4) mice) is recorded as “No cysts”. Further, in data set [4] (setting [6]), the “MAFA staining of insulin expressing beta cells in graft” value is “positive for MAFA” and the graft composition result was “islet like structures”.
